Molecular target: T1, Taq DNA polymerase (Thermus aquaticus, UniProt P19821)
T1 construct: a truncated version of Taq DNA polymerase (543 amino acids of the C-terminus part); made in house; host or cells: E. coli JM109 (pTTQ vector)
Assay: Labeled-primer extension assay
Assay type: biochemical
Conditions: for template-dependent incorporation: template T83, ApG3p and TpC3p together, FIG. 8 lane 2; for incorporation of complementary versus non-complementary dinucleotide: dinucleotide alone, FIG. 7 lanes 6 and 7
Experimental: The oligonucleotides that were used for this assay are detailed in Table 4 before. The reactions of labeled-primer extension included: polymerization buffer (40 mM Tricine-KOH, pH 8.0; 16 mM KCl; 5 mM MgCl2 and 4 μg BSA), 1 pmol template, 0.2 pmol of the p201 primer (labeled at its 5′ with P^32-γ-ATP using T4 polynucleotide kinase), 1 μM of the indicated dNTP's and 50 μM of the indicated di- or trinucleotide triphosphates in a total volume of 20 μl. The reactions were incubated for 5 minutes at 45° C., then 5 units of Taq DNA polymerase (see Example 3 for details) were added, followed by 20 minutes at 72° C. The reactions were terminated with 15 μl of stop solution (95% formamide, 20 mM EDTA and 0.05% bromophenol blue). Three μl were then separated on Urea-PAGE, and the radiolabeled DNA-bands were detected by phosphoimaging.

T1 sequence (P19821 290-832 limits assumed): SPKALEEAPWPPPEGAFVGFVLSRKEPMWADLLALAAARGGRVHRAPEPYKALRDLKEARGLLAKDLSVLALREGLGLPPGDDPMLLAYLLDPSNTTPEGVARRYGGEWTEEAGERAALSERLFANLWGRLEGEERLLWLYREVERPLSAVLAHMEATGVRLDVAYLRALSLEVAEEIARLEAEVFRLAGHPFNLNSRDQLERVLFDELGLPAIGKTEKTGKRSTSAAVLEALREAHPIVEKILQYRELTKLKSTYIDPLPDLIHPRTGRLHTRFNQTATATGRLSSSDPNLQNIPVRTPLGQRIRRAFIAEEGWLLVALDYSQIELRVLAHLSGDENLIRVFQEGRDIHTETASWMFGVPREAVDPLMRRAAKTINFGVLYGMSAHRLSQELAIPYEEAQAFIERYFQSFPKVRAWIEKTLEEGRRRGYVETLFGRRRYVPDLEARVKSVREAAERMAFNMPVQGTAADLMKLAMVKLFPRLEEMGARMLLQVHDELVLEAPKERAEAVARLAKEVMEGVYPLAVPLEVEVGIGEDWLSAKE

Compound	template-dependent incorporation	incorporation of complementary versus non-complementary dinucleotide (template T24)	other results
Nc1nc2c(ncn2[C@H]2C[C@H](O)[C@@H](COP(=O)(O)O[C@H]3C[C@H](n4cnc5c(N)ncnc54)O[C@@H]3CO)O2)c(=O)[nH]1 [ApG3p, 2′-deoxyadenylyl(3′-5′)-2′-deoxyguanosine]	template-dependent incorporation		
Nc1ccn([C@H]2C[C@H](OP(=O)(O)OC[C@H]3O[C@@H](n4cnc5c(N)ncnc54)C[C@@H]3O)[C@@H](CO)O2)c(=O)n1 [CpA3p, 2′-deoxycytidylyl(3′-5′)-2′-deoxyadenosine]		seems to be incorporated	template-dependent incorporation onto 3′ end of labeled primer p201 (templates T80 and T81, 50 μM dinucleotide triphosphates, FIG. 6 lanes 3-7): correct incorporation; efficiency of incorporation compared to the natural dNTP's (templates T80 and T81, FIG. 6 lanes 3-7 vs lane 2): lower efficiency
Nc1ccn([C@H]2C[C@H](OP(=O)(O)OC[C@H]3O[C@@H](n4ccc(N)nc4=O)C[C@@H]3O)[C@@H](CO)O2)c(=O)n1 [CpC3p, 2′-deoxycytidylyl(3′-5′)-2′-deoxycytidine]		Only the complementary dinucleotide (CpA3p) seems to be incorporated	
Cc1cn([C@H]2C[C@H](OP(=O)(O)OC[C@H]3O[C@@H](n4ccc(N)nc4=O)C[C@@H]3O)[C@@H](CO)O2)c(=O)[nH]c1=O [TpC3p, thymidylyl(3′-5′)-2′-deoxycytidine]	template-dependent incorporation		
thymidylyl-3′-5′-thymidylyl-3′-5′-thymidine (DNA TTT; DNA, phosphodiester; triphosphate form of the trinucleotide, triphosphate end not given here, further chemistry not fully specified) [TpTpT3p]			template-dependent incorporation in a mix with dCTP and dATP (template T24, FIG. 7 lanes 4 and 5): utilized

Reference: patent US20110306503A1, “TEMPLATE-DEPENDENT NUCLEIC ACID POLYMERIZATION USING OLIGONUCLEOTIDE TRIPHOSPHATES BUILDING BLOCKS” (Yeda Research And Development Co. Ltd., priority 1999, published 2011)
